The record followed here is ChEMBL document CHEMBL4138184 (J Nat Prod, 2017).

Molecules are shown by their SMILES. pIC50, pKi: −log10 of the molar value.

The subject of assay [1] is BT-549. Put plainly: Antiproliferative activity against human BT549 cells at 1 nM to 100 uM after 24 hrs by MTT assay relative to control. The assay is classed as functional. The following applies: at 0.001 to 100 µM. (In general: Tetrazolium dyes change colour on reduction, which living cells bring about.)
Assay [2] in a line: Antiproliferative activity against mouse mammary carcinoma cell at 1 nM to 100 uM after 24 hrs by MTT assay relative to control. It counts as functional. The following applies: at 0.001 to 100 µM.
Assay [3] deals with MDA-MB-231. Put plainly: Antiproliferative activity against human MDA-MB-231 cells at 1 nM to 100 uM after 24 hrs by MTT assay relative to control. The following applies: at 0.001 to 100 µM. It counts as functional.
Assay [4] relates to BT-549. Put plainly: Antiproliferative activity against human BT549 cells after 24 hrs by MTT assay. The following applies: BT-549, 24 h. It counts as functional, cell-based.
For assay [5], the target named is T1, Melatonin receptor type 1A (Homo sapiens, UniProt P48039).
The test system of assay [6] is MCF7. Kind of assay: Antiproliferative activity against human MCF7 cells at 1 nM to 100 uM after 24 hrs by MTT assay relative to control. It counts as functional. The following applies: at 0.001 to 100 µM.
Assay [7] is described as follows: Antiproliferative activity against mouse mammary carcinoma cell after 24 hrs by MTT assay. The assay is classed as functional.
Assay [8] deals with MDA-MB-231. Kind of assay: Antiproliferative activity against human MDA-MB-231 cells after 24 hrs by MTT assay. It counts as functional, cell-based. The following applies: MDA-MB-231, 24 h.
The subject of assay [9] is MCF7. Kind of assay: Inhibition of cell migration in human MCF7 cells at 100 uM after 24 hrs by inverted fluorescence microscopy based scratch assay relative to control. The following applies: MCF7, 24 h. It counts as functional.
Assay [10] in a line: Inhibition of cell migration in mouse mammary carcinoma cell at 100 uM after 24 hrs by inverted fluorescence microscopy based scratch assay relative to control. The assay is classed as functional.
Assay [11] concerns BT-549. Kind of assay: Inhibition of cell migration in human BT549 cells at 100 uM after 24 hrs by inverted fluorescence microscopy based scratch assay relative to control. It counts as functional. The following applies: BT-549, 24 h.
Assay [12] relates to MDA-MB-231. Kind of assay: Inhibition of cell migration in human MDA-MB-231 cells at 100 uM after 24 hrs by inverted fluorescence microscopy based scratch assay relative to control. The assay is classed as functional. The following applies: MDA-MB-231, 24 h.
Assay [13] has as its system MCF7. Kind of assay: Antiproliferative activity against human MCF7 cells after 24 hrs by MTT assay. It counts as functional, cell-based. The following applies: MCF7, 24 h.
Assay [14] has as its target T1, Melatonin receptor type 1A. This is another data set of the same source.

T1 sequence (P48039 whole entry): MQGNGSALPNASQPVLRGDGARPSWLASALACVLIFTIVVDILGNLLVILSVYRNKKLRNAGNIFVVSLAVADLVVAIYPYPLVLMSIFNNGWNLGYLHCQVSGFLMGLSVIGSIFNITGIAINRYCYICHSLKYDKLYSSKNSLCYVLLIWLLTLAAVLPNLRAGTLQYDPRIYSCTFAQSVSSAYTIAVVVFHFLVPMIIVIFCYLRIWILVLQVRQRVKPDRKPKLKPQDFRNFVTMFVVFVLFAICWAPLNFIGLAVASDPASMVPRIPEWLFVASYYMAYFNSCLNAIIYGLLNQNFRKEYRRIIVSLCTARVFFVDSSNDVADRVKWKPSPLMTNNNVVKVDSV

In general, pIC50 refers to the IC50 on a negative log10 scale, so that one unit is a factor of ten. A low value points to a high IC50. By pKi is commonly meant the Ki on a negative log10 scale, so that one unit is a factor of ten. On to `COc1cc(/C=C/C(=O)O)ccc1OC/C=C(\C)CCC=C(C)C`, for which the Efficacy in the assay with BT-549 [1] came to 93%; in assay [2], 99%; in the assay on MDA-MB-231 [3], 79%; with MCF7 [6] it was 102%. For the same molecule, the negative logarithm of the IC50 (pIC50) was 5.25 in the assay with BT-549 [4], 5.60 in assay [7] and 4.66 in the assay on MDA-MB-231 [8]. The pKi in assay [5] is 4.23.
Usually inhibition stands for the drop in the measured response relative to a control, in per cent. Take `CC(C)=CCC/C(C)=C/COc1ccc2ccc(=O)oc2c1`: the Efficacy in the assay on BT-549 [1] turned out to be 86%; in assay [2], 57%; in the assay with MDA-MB-231 [3], 67%; with MCF7 [6] it was 90%. For the same molecule, the inhibition at 100 µM in the assay with MCF7 [9] was 3%; in assay [10] it was 5%; in the assay on BT-549 [11], 7%; with MDA-MB-231 [12], -36%. Further, the values for the negative-log IC50 (pIC50) in the assay on BT-549 [4] and with MDA-MB-231 [8] were 4.62 and 4.10, respectively. This molecule also had a pKi in [5] of 5.72.
Consider `O=c1ccc2ccc(O/C=C/c3ccccc3)cc2o1`, for which the Efficacy in the assay with BT-549 [1] came to 86%; in assay [2], 93%; in the assay with MDA-MB-231 [3], 82%; in the assay on MCF7 [6], 87%. The pIC50 is 5.66 in the assay with MCF7 [13], 3.85 in the assay with BT-549 [4] and 5.18 in the assay on MDA-MB-231 [8]. The molecule also gave a negative logarithm of the Ki (pKi) in [5] of 6.43.
With `CCC#CCOc1ccc2ccc(=O)oc2c1` [7-(2-PENTYNYLOXY)COUMARIN], the Efficacy amounted to 86% in the assay on BT-549 [1], 101% in assay [2], 87% in the assay on MDA-MB-231 [3] and 89% in the assay with MCF7 [6]. Moreover, the pIC50 is 4.30 in the assay with MCF7 [13], 4.13 in the assay on BT-549 [4] and 4.62 in [7]. This molecule also gave a pKi in [5] of 6.05.
As to `CC(C)=CCOc1ccc2ccc(=O)oc2c1` [7-PRENYLOXYCOUMARIN], the Efficacy is recorded as 94% in the assay on BT-549 [1], 98% in assay [2], 83% with MDA-MB-231 [3] and 105% with MCF7 [6]. For the same molecule, the negative logarithm of the IC50 (pIC50) with BT-549 [4] was 4.43. In addition, the negative logarithm of the Ki (pKi) in [5] was 5.28.
For the molecule `COc1cc(/C=C/C=O)ccc1OCC=C(C)C` [BOROPINAL], the Efficacy came out at 83% with BT-549 [1], 96% in assay [2], 79% in the assay with MDA-MB-231 [3] and 94% with MCF7 [6]. Further, the figures for the pIC50 (in the assay with BT-549 [4]; in assay [7]; in the assay on MDA-MB-231 [8]) were 7.35, 6.66 and 4.20, respectively. Moreover, in [5], the negative logarithm of the Ki (pKi) was 6.10.
Regarding `COc1cc(/C=C/C(=O)O)ccc1OCC=C(C)C` [BOROPINIC ACID], the Efficacy in the assay with BT-549 [1] came out at 97%; in [2], 98%; with MDA-MB-231 [3] it was 89%; in the assay on MCF7 [6], 102%. For the same molecule, the pIC50 was 6.15 in the assay on MCF7 [13], 4.82 with BT-549 [4] and 5.21 in assay [7].
On to `COc1cc(/C=C/C(=O)O)ccc1O` [FERULATE], for which the Efficacy in the assay on BT-549 [1] came out at 99%; in assay [2] it was 100%; in the assay with MDA-MB-231 [3] it was 92%; in the assay with MCF7 [6], 96%. Moreover, the pIC50 was 5.92 in the assay on BT-549 [4] and 6.30 in the assay with MDA-MB-231 [8].
For `COc1ccc2[nH]cc(CCNC(C)=O)c2c1` [MELATONIN], the Efficacy in the assay with BT-549 [1] is on record as 91%; in [2] it was 91%; in the assay with MDA-MB-231 [3] it was 92%; with MCF7 [6], 87%. Moreover, the pIC50 in the assay on BT-549 [4] was 1.52; in [7] it was 6.70; with MDA-MB-231 [8] it was 6.05.
In the case of `O=c1ccc2ccc(O)cc2o1` [UMBELLIFERONE], the Efficacy with BT-549 [1] was found to be 91%; in [2], 93%; in the assay with MDA-MB-231 [3], 88%; in the assay on MCF7 [6], 124%. In addition, the pIC50 in the assay on MCF7 [13] is 5.54; in the assay on BT-549 [4] it was 3.00; with MDA-MB-231 [8] it was 5.43.
On to `CC(C)=CCC/C(C)=C/CC/C(C)=C/COc1ccc2ccc(=O)oc2c1` [UMBELLIPRENIN], for which the Efficacy is listed as 85% with BT-549 [1], 61% in assay [2], 60% in the assay with MDA-MB-231 [3] and 81% with MCF7 [6]. Besides, the inhibition at 100 µM with MCF7 [9] is 9%; in assay [10], 7%; in the assay with BT-549 [11], 23%; with MDA-MB-231 [12], -52%. Further, the KiH in assay [14] came to 1.6 nM. Besides, the KiL in [14] amounted to 3.3 nM. The molecule also had a pIC50 in the assay on MDA-MB-231 [8] of 4.52.
